Literature values as cited in patent US20120046286A1, “Novel Compounds” (priority 2009, published 2012).

Columns and labels:
neutrophils [1] = system: neutrophils
neutrophils [2] = details: treatment of neutrophils; Thelen et al. 1994

Structure (SMILES): O=c1cc(N2CCOCC2)oc2c(-c3ccccc3)cccc12 [LY294002]
- effect on neutrophil migration and superoxide release (neutrophils [1]): block neutrophil migration and superoxide release

Structure (SMILES): COC[C@H]1OC(=O)c2coc3c2[C@@]1(C)C1=C(C3=O)[C@@H]2CCC(=O)[C@@]2(C)C[C@H]1OC(C)=O [wortmannin]
- effect on neutrophil migration and superoxide release (neutrophils [1]): block neutrophil migration and superoxide release
- effect on fMLP-induced respiratory burst response (neutrophils [2]): prevents the fMLP-induced respiratory burst response
